Legend:
D(2) dopamine receptor [1] = target: T1, D(2) dopamine receptor (Homo sapiens, UniProt P14416)
D(3) dopamine receptor [2] = target: T2, D(3) dopamine receptor (Homo sapiens, UniProt P35462)
[3] = target: T3, 5-hydroxytryptamine receptor 1A (Rattus norvegicus, UniProt P19327); experiment: Inhibition of [3H]8-OH-DPAT binding to 5-hydroxytryptamine 1A receptor
T3 sequence (P19327 whole entry): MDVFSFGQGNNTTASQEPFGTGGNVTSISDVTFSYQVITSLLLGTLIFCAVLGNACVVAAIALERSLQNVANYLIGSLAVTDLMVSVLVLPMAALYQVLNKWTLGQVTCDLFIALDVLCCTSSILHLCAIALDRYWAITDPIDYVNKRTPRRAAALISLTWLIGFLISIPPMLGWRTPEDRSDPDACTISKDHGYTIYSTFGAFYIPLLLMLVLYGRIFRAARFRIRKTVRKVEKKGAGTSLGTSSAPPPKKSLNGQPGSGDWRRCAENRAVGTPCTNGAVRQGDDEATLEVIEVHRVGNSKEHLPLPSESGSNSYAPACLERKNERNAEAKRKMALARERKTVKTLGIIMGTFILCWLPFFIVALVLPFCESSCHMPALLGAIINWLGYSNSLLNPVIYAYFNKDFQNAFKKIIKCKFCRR

D(2) dopamine receptor [4] = target: T1, D(2) dopamine receptor; remark: listed apart in the source
D(3) dopamine receptor [5] = target: T2, D(3) dopamine receptor; remark: listed apart in the source
D(2) dopamine receptor [6] = target: T1, D(2) dopamine receptor; experiment: Hill coefficients for [3H]-raclopride binding to dopamine D2 receptor high-and low-affinity agonist states
D(2) dopamine receptor [7] = target: T1, D(2) dopamine receptor; experiment: Inhibition of [3H]raclopride binding to Dopamine receptor D2

T2 sequence (P35462 whole entry): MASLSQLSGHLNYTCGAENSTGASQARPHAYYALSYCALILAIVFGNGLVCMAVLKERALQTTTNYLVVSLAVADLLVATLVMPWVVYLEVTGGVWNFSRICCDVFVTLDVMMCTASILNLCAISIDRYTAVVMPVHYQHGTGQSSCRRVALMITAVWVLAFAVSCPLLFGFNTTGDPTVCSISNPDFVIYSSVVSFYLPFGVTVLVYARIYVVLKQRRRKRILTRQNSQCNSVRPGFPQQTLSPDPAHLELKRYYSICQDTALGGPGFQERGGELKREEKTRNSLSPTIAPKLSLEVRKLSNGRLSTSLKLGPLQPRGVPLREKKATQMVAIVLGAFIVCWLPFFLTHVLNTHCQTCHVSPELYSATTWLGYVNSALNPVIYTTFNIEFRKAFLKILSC
T1 sequence (P14416 whole entry): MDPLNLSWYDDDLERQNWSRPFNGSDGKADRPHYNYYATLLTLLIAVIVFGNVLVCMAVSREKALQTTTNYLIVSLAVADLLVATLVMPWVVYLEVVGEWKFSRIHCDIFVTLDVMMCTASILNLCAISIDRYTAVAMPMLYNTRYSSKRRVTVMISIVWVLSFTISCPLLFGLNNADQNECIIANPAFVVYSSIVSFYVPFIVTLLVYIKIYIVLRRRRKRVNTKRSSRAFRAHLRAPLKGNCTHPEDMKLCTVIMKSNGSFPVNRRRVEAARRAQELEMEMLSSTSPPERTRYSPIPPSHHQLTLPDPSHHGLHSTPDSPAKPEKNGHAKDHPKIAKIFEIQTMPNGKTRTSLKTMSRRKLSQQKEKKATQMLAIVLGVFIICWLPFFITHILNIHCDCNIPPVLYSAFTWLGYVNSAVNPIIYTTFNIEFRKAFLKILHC

Compound | Ki (D(2) dopamine receptor [1]) [nM] | nH (D(3) dopamine receptor [2]) | Ki [3] [nM] | Ki (D(2) dopamine receptor [4]) [nM] | Ki (D(3) dopamine receptor [5]) [nM] | nH (D(2) dopamine receptor [6]) | Ki (D(2) dopamine receptor [7]) [nM]
CCCN(C(C)C)[C@@H]1CCc2c(F)cccc2C1 | 1530 | 0.91 | 644 | 4720 | 199 | 0.94 | 
Fc1cccc2c1CC[C@@H](NCc1ccccc1)C2 | 779 | 0.88 | 494 | 2830 | 1050 | 0.81 | 
NCCc1ccc(O)c(O)c1 |  |  |  |  |  | 0.66 | 
CCCCN(CCC)[C@@H]1CCc2c(F)cccc2C1 | 45.6 | 0.98 | 44.5 | 210 | 4.42 | 0.91 | 
CCCN(CCC)[C@@H]1CCc2c(F)cccc2C1 | 26 | 1.03 | 30.2 | 201 | 8.62 | 0.89 | 
CCCN(Cc1ccccc1)[C@@H]1CCc2c(F)cccc2C1 | 179 | 0.92 | 28.8 | 415 | 23.8 | 0.86 | 
CCCCN[C@@H]1CCc2c(F)cccc2C1 | 254 | 0.79 | 440 | 790 | 158 | 0.93 | 
CC(C)N[C@@H]1CCc2c(F)cccc2C1 |  | 0.9 | 627 | 5940 | 1450 | 0.88 | 
O=C1CC2(CCCC2)CC(=O)N1CCCCN[C@@H]1CCc2c(F)cccc2C1 | 37 | 0.88 | 6.46 |  | 4.94 | 0.88 | 68.2
CCCN(CCCCN1C(=O)CC2(CCCC2)CC1=O)[C@@H]1CCc2c(F)cccc2C1 | 4.94 | 0.92 | 0.246 |  | 0.251 | 0.87 | 16.9
CCCN[C@@H]1CCc2c(F)cccc2C1 | 167 | 0.92 | 108 | 582 | 35.8 | 0.86 | 
N[C@@H]1CCc2c(F)cccc2C1 | 585 | 0.99 | 525 | 864 | 150 | 0.81 | 

From ChEMBL document CHEMBL1129381, “Novel (R)-2-amino-5-fluorotetralins: dopaminergic antagonists and inverse agonists” (J Med Chem, 1996)
